Results taken from patent US10071095B2, “1,2,4-triazolo [4,3-A] pyridine derivatives and their use for the treatment of neurological and psychiatric disorders” (JANSSEN PHARMACEUTICALS, INC., priority 2009, dated 2018).
Where two headings read alike, the source gives them in different places. Marks after values point to notes of the source that are not given here.

How the values were obtained:
REM sleep in rats = experiment: Sleep wake electroencephalography (SW-EEG) in rats; type: in vivo
Text: Sleep Wake Electroencephalography (SW-EEG) in Rats
SW-EEG analyses are a highly sensitive read-out of a compound's central functional activity that may provide additional insight in the potential therapeutic application (i.e. via drug classification fingerprinting). […] Internal efforts have confirmed that this effect is mGlu2 receptor-mediated, i.e. is absent in mGlu2 KO mice. Sleep abnormalities are often associated with CNS disorders; as such, the potential use of mGlu2 modulators could also have benefit in the treatment of CNS disorders in which (REM) sleep aberrations are manifested. More specifically, the combination of a persistent reduction in REM occurrence and an increase in REM latency is one of the key features of the typical SW architecture fingerprint of most clinically active antidepressants.
We investigated the effects of oral administration of compounds according to the invention on SW organization in rats. The mGlu2/3 receptor agonists LY404039 and LY354740 were also evaluated to allow comparison.

[1] = tested on: memantine-induced 2DG uptake in mouse brain (hippocampus); experiment: Reversal of memantine-induced brain activation ([14C]2DG uptake) in mice; type: in vivo; settings: for L.A.D. (lowest active dose for significant reduction of 2DG uptake in hippocampus vs memantine response): mice C57BL/6, s.c., memantine 20 mg/kg s.c., p<0.05
Method: Reversal of Memantine-Induced Brain Activation in Mice
NMDA receptor hypofunction is hypothesized to be involved in schizophrenia.
Autoradiographic assessment of radiolabeled [^14C]-2-deoxyglucose ([^14C]2DG) uptake is commonly used to investigate brain activation. In humans, cerebral blood flow is increased in specific brain regions after administration of a subanaesthetic dose of ketamine.
Male mice (C57BL/6, weight 24-28 g, fasted overnight; n=10 animals per group) were treated with vehicle or test compound (s.c.) in randomized order (t=0 min). Memantine (20 mg/kg, s.c.) was injected 30 min later (t=30 min). At t=45 min, [^14C]2DG (0.16 μCi/g) was administered intraperitoneally (i.p.), followed by a 45 min uptake period. Animals were decapitated (t=90 min), plasma glucose levels measured, the brain removed, rapidly frozen and stored at −20° C. until sectioned. Brain sections were exposed together to a precalibrated [^14C]standard on film, which was developed after four days of exposure. Local tissue [^14C]concentration (nCi/mg tissue equivalent—TEQ—) in each region of interest was determined.
Data was analyzed statistically using a two-way ANOVA analysis followed by post-hoc tests (memantine response versus reversal by the compound). The results are shown in table 5 below, expressed as lowest active dose (L.A.D.) required to exert a statistically significant (p<0.05) reduction of 2DG uptake in the hippocampus compared to memantine response.

[2] = tested on: PCP-induced hyperlocomotion in male NMRI mice; experiment: Phencyclidine (PCP)-induced hyperlocomotion in mice (video tracking); type: in vivo
Method: (§1) Motor Activity (Video Tracking)
(§2) Apparatus and General Procedure
(§3) On the day of experiments, the mice were brought into the procedural room. They were housed individually and allowed to acclimate for at least a half hour prior to testing. Although the studies were conducted during the light cycle (from 8:00 to 16:00 h), the procedure room was only sparsely lit (3 to 30 LUX) to provide better contrast for the video tracking. Local lighting was used for the injection procedures. During each trial, an individual mouse was placed in an open field arena (grey PVC cylinder with a height of 40 cm and a diameter of 22.5 cm). Each arena was placed on an infrared LED (8×8 LEDs)-lit box (white PVC squared box; 40×40 cm^2; height 12.5 cm). Each mouse was placed in the center of the arena and allowed to explore freely for 30 min. After each trial, the arena was cleaned with a wet and subsequently with a dry cleaning cloth. An infrared sensitive tube camera and a white light source (in arena: 4-7 LUX) were mounted to the ceiling above the observation chamber to record and input activity to a computer. Animal behavior was recorded and analyzed using the Noldus Ethovision XT Video Tracking System (Version 3.1; Noldus, Wageningen, The Netherlands). The total distance traveled (cm) was calculated. Data were then exported to data management systems for further analysis and reporting.
Phencyclidine (PCP)-Induced Hyperlocomotion in Mice
Test compound or solvent was administered at a pre-defined time before measurement (standard: 30 min) to male NMRI mice that were challenged with phencyclidine (PCP; 5 mg/kg, s.c.) 30 min before measurement. Activity was measured for a period of 30 min.

[3] = tested on: d-amphetamine-induced hyperlocomotion in male NMRI mice; experiment: d-Amphetamine-induced hyperlocomotion in mice (video tracking); type: in vivo
Method: as §1, §2
as §3, with “An infrared sensitive tube camera and a white light source (in arena: 4-7 LUX) were mounted to the ceiling above the observation chamber to record and input activity to a computer.” left out, “Data were then exported to data management systems for further analysis and reporting.” left out
Test compound or solvent was administered at a pre-defined time before measurement (standard: 30 min) to male NMRI mice that were challenged with d-amphetamine (5 mg/kg, s.c.) 30 min before measurement. Activity was measured for a period of 30 min.

[4] = tested on: conditioned avoidance response in male Wiga Wistar rats; experiment: Conditioned avoidance response (CAR) test in rats; type: in vivo; settings: for ED50: Rattus norvegicus, po, read-out: ED50 (mg/kg) CAR-Inh.
Text: Conditioned Avoidance Response (CAR) Test
The apparatus consisted of an inner box surrounded by an outer box. The inner box was composed of four walls of transparent, synthetic material (length×width×height: 30×30×30 cm), an open top, and a grid floor made of 15 pairs of iron bars (2 mm diameter; 6 mm inter-bar distance). Odd and even bars were connected with a source of alternative current (1.0 mA; Coulbourn Instruments Solid State Shocker/Distributor), which could be interrupted by a switch. The outer box was composed of the same material (length×width×height: 40×40×36 cm), also with an open top, with a distance of 5 cm between the inner and outer box on all sides. To decrease the amount of environmental stimuli, three walls of the outer box were made non-transparent. The front wall was left transparent to allow the necessary inspection of the animal during the test. The upper edge of the outer and inner box served as a target for the rats on which to jump with fore- and hind-paws, respectively.
Avoidance Conditioning and Selection of Animals
From their arrival in the laboratory on the experimental day, male Wiga Wistar rats (230±30 g) were housed in individual cages provided with bedding material.
Latency to avoidance was recorded. The median avoidance response obtained over the three experimental sessions for each rat were used for further calculations.

human mGluR2 receptor = target: T1, human mGluR2 receptor (Homo sapiens, UniProt Q14416); experiment: [35S]GTPγS binding assay, positive allosteric modulation (GTPγS-PAM) in presence of EC20 glutamate; type: biochemical; settings: in presence of glutamate at EC20; average pEC50 if more experiments; ‡ means tested once
T1 construct: expressed in transfected cells; host or cells: CHO cells
In short: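 Membranes from butyrate-stimulated CHO cells expressing human mGluR2 (7 μg protein) preincubated 30 min at 30°C with compound plus ~EC20 glutamate in HEPES pH 7.4, 100 mM NaCl, 3 mM MgCl2, 10 μM GDP, 10 μg/ml saponin. [35S]GTPγS (0.1 nM) incorporation over 30 min at 30°C measured by filtration and scintillation counting.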

[5] = compound administered orally (*); a)/b) = estimated ED50 values
[6] = not marked * (not oral; injection per method); b) = estimated ED50 values (n = 3 per dose)

T1 sequence (Q14416 19-872): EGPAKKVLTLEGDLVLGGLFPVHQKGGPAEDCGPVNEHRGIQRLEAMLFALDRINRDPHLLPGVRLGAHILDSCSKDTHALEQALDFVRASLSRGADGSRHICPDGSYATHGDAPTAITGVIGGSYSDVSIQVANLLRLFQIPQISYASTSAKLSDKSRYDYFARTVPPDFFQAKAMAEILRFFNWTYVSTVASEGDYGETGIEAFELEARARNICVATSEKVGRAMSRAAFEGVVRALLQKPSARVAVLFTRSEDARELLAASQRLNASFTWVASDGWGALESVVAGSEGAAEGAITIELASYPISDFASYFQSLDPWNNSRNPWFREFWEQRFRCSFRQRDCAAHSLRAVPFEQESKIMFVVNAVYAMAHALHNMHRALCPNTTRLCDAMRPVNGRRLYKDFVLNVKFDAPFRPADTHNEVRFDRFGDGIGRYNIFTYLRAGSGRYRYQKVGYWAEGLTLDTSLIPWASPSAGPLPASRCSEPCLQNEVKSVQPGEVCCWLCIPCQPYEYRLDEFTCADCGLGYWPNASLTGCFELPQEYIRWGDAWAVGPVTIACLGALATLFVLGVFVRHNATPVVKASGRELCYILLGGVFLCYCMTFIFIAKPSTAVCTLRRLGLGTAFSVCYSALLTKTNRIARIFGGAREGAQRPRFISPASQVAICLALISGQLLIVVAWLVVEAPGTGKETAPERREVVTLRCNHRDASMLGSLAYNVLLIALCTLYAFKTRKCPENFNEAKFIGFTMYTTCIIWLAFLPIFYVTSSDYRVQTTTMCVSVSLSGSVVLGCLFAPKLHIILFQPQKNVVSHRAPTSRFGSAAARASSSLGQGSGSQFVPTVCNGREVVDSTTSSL

For `N[C@@]1(C(=O)O)CC[C@H]2[C@H](C(=O)O)[C@H]21` [LY354740], the “lowest active dose, decrease in REM sleep” value (REM sleep in rats; acute dosing, s.c.) was 3 mg/kg and the “effect of subchronic treatment on REM sleep effect (in words)” value (REM sleep in rats; once daily dosing for 7 days, 1, 3, 10 mg/kg, s.c.) was “led to tolerance”.

For `N[C@@]1(C(=O)O)CS(=O)(=O)[C@H]2[C@H](C(=O)O)[C@H]21` [LY404039, reference compound], the “effect on memantine-induced brain glucose metabolism / 2DG uptake (in words)” value ([1]; mouse brain, reference drugs) was “inhibited” and the “effect on REM sleep (in words)” value (REM sleep in rats; 3 mg/kg, p.o.) was “affect REM sleep”.

`FC(F)(F)c1c(N2CCC(c3ccccc3)CC2)ccn2c(CC3CC3)nnc12` [compound 43, 3-(Cyclopropylmethyl)-7-(4-phenyl-1-piperidinyl)-8-(trifluoromethyl)-1,2,4-triazolo[4,3-a]pyridine] was tested, and the ED50 ([2]; Mus musculus, read-out: Mice ED50 (mg/kg) PCP-Inh.) was 5.4 mg/kg, the “inhibition of PCP-induced hyperlocomotion in mice (in words)” value ([2]; mice) was “inhibited” and the ED50 ([3]; Mus musculus, sc, male NMRI mice, s.c., d-amphetamine 5 mg/kg s.c., criterion total distance <5500 counts, read-out: ED50, inhibition of amphetamine-induced hyperlocomotion) was 37 mg/kg. The “activity against d-amphetamine-induced hyperlocomotion in mice (in words)” value ([3]; mice) was “active”, the “inhibition of the conditioned avoidance response in rats (in words)” value [4] was “inhibited” and the ED50 [4, 5] was 16.3 mg/kg. For the same compound, the ED50 [4, 6] was 2.35 mg/kg, the “L.A.D. (lowest active dose for significant reduction of 2DG uptake in hippocampus vs memantine response)” value [1] was ≤2.5 mg/kg, s.c and the “effect of subchronic treatment on REM sleep effect (in words)” value (REM sleep in rats; once daily dosing for 7 days, 3, 10 and 30 mg/kg, p.o.) was “did not diminish the effects”.

For `Fc1ccc(N2CCN(c3ccn4c(CC(F)(F)F)nnc4c3Cl)CC2)c(F)c1` [compound 97], the “GTPγS - hR2 PAM pEC50” value (human mGluR2 receptor) was 6.3, the “inhibition of PCP-induced hyperlocomotion in mice (in words)” value ([2]; mice) was “inhibited” and the “Mice ED50 (mg/kg) PCP-Inh., estimated ED50 (footnote a)” value ([2]; mice, inhibition of PCP-induced hyperlocomotion, estimated ED50 values (n = 3 per dose; 4-fold separation between doses)) was 6.3 ^a) mg/kg. For the same compound, the “inhibition of the conditioned avoidance response in rats (in words)” value [4] was “inhibited”, the “ED50 (mg/kg) CAR-Inh.” value [4, 5] was 32*^b) mg/kg and the “ED50 (mg/kg) CAR-Inh.” value [4, 6] was 16^b) mg/kg. The “L.A.D. (lowest active dose for significant reduction of 2DG uptake in hippocampus vs memantine response)” value [1] was ≤10 mg/kg, s.c.
